Assay results from a compilation of properties of binary mixtures (doi:10.1016/j.molliq.2015.01.031).

Experiment: xn = mol fraction of the nth substance listed
Conditions: 101 kPa

CC(O)CO (stereo unspecified) + CCCC[n+]1ccn(C)c1.F[B-](F)(F)F
speed of sound [m/s]
Conditions | x1 = 0.1182 | x1 = 0.2003 | x1 = 0.3122 | x1 = 0.4189 | x1 = 0.5064 | x1 = 0.6165 | x1 = 0.695 | x1 = 0.797 | x1 = 0.8966 | x1 = 1
298.15 K | – | – | – | 1545.8 | 1541.1 | 1535.1 | 1530.5 | 1524.7 | 1518.5 | 1511
303.15 K | 1548.1 | 1544.1 | 1538.9 | – | 1529 | 1522.8 | – | 1511.8 | 1505.3 | 1497.2
308.15 K | – | 1532.3 | – | 1521.8 | 1516.9 | 1510.4 | 1505.3 | 1498.8 | 1491.8 | 1483.1
313.15 K | 1524.6 | 1520.6 | 1515.2 | 1509.8 | 1504.7 | – | 1492.6 | 1485.7 | – | 1469
318.15 K | 1513 | 1509 | – | 1497.9 | 1492.5 | 1485.5 | 1480 | 1472.7 | – | 1454.9
323.15 K | 1501.6 | 1497.4 | 1491.8 | 1486.1 | 1480.5 | – | 1467.3 | 1459.6 | 1451.4 | 1440.7

CCCC[n+]1ccn(C)c1.F[B-](F)(F)F + OCCCO
x2 = 0
Conditions | speed of sound [m/s]
298.15 K | 1565.1
303.15 K | 1553.2
308.15 K | 1541.3
313.15 K | 1529.7
318.15 K | 1518.2
323.15 K | 1506.8

CCCC[n+]1ccn(C)c1.F[B-](F)(F)F + CC(O)CO
x2 = 0
Conditions | speed of sound [m/s]
303.15 K | 1552.9
318.15 K | 1518
323.15 K | 1506.6

OCCCO + CCCC[n+]1ccn(C)c1.F[B-](F)(F)F
speed of sound [m/s]
Conditions | x1 = 0.1026 | x1 = 0.2072 | x1 = 0.3172 | x1 = 0.3943 | x1 = 0.503 | x1 = 0.6011 | x1 = 0.7009 | x1 = 0.8006 | x1 = 0.8979 | x1 = 1
298.15 K | 1564.2 | 1563.5 | 1565.2 | – | 1574.2 | 1580.8 | 1590 | – | 1612.8 | 1628.8
303.15 K | – | 1551.8 | 1553.4 | 1557.4 | 1562.4 | 1569 | 1578.2 | 1589.4 | 1601.1 | 1617.6
308.15 K | 1540.8 | 1539.9 | 1541.5 | 1545.5 | 1550.6 | 1557.2 | 1566.5 | 1577.8 | – | 1606.2
313.15 K | 1529.1 | 1528.2 | – | – | – | 1545.5 | 1554.8 | 1566.2 | 1578.1 | 1594.8
318.15 K | 1517.6 | 1516.6 | 1518.1 | 1522.1 | 1527.1 | – | – | 1554.6 | 1566.6 | 1583.5
323.15 K | 1506.2 | 1505.1 | 1506.5 | – | 1515.5 | 1522.2 | 1531.6 | 1543.1 | – | 1572.1
